Measurements reported in patent publication US8563580B2, “Flavivirus inhibitors and methods for their use” (Georgetown University, priority 2008, dated 2013).

What was measured:
WNV protease = assay: High Throughput Screen (HTS) protease assay; format: biochemical, West Nile virus (EG101 strain); details: 100 nl of 5 mg/ml compound in DMSO per 30.1 μl well; substrate Boc-Gly-Lys-Arg-AMC 50 μM; DMSO controls = 100% activity
Method: Procedures for expression and purification of WNV (EG101 strain) were similar to those described elsewhere by Mueller et al., Int. J. Biochem. Cell. Biol., 39: 606-14 (2007). Briefly, E. coli Top10 F′ cells (Invitrogen, Carlsbad, Calif.) were transformed with the protease expression plasmid. Cells were grown at 37° C. until the OD600 was ˜0.5. Cells were then induced with isopropyl-1-thio-β-D-galactopyranoside (American Bioanalytical, Natick, Mass.) (0.5 mM), and incubated for 4 h at 37° C. Cells were harvested by centrifugation (5000×g) for 15 min at 4° C., washed once with a buffer containing 50 mM Tris-HCl, pH 7.5, and 200 mM NaCl, centrifuged at 5000×g for 15 min at 4° C., and stored at -80° C. until used.
Proteases were purified by suspending bacterial pellets in 50 mM Hepes, pH 7.0, 500 mM NaCl, (buffer A) with 0.05 mg/ml lysozyme. Cells were incubated for 30 min on ice after addition of 10% stock solution of Triton X-100 (final concentration of 0.5%). Cells were disrupted by sonication for 2 min and the soluble fraction was collected after centrifugation (15,000×g) for 30 min at 4° C. The soluble fraction was incubated for 1 h at 4° C. with Talon resin (BD Bioscience, San Jose, Calif.) which was pre-equilibrated in buffer A. The affinity resin was centrifuged at (400×g) for 10 min at 4° C., washed three times with buffer A, and packed into a column. Washing of the column was continued with the buffer A containing 10 mM imidazole, followed by elution of the protease with buffer A containing 150 mM imidazole. The protease was concentrated and further purified by Sephadex G-75 gel filtration chromatography. The purified protease fractions were pooled and dialyzed against a buffer containing 50 mM Tris-HCl pH 7.5 and 300 mM NaCl (4×1 L). Aliquots (100 μl) were frozen at −80° C.
The protease assay (100 μl) described by Mueller et al., Int. J. Biochem. Cell. Biol. 39: 606-14 (2007) was adapted for a 384-well plate format (30.1 μl). Microtiter plates were loaded sequentially with 14 μl of the reaction buffer containing 200 mM Tris-HCl, pH 9.5, and 30% glycerol (TG buffer) using an automated Wellmate (Matrix, Hudson, N.H.) and 6 μl of WNV protease (0.05 μM) (as prepared above) in TG buffer containing 15 mM NaCl (3 mM final concentration). Plates were then centrifuged at 1000×g for 3 min at room temperature to mix samples and pool liquids at the bottom of the wells. Inhibitor compounds (100 nl of 5 mg/ml in dimethyl sulfoxide; DMSO) were added to each well in duplicate by a pin-transfer mechanism of a robotic delivery system. The final inhibitor concentrations in the assays varied due to different molecular weights of the compounds from the libraries that were screened. Plates were incubated at room temperature to allow for formation of protease/inhibitor complexes. The fluorogenic substrate, t-butyl-oxycarbonyl(Boc)-Gly-Lys-Arg-7-amino-4-methyl coumarin (AMC) (10 μl in TG buffer; 50 μM final concentration in the reaction mixture), was added using the Wellmate, and the plates were centrifuged for 3 min at 1000×g and incubated at room temperature for 15 min. Fluorescence was measured at excitation and emission wavelengths of 385 nm and 465 nm, respectively, on a Perkin-Elmer (Waltham, Mass.) spectrofluorometer. To validate the assay conditions, aprotinin (bovine pancreatic trypsin inhibitor, BPTI) was used as a positive control. Assay mixtures containing DMSO were used as negative controls. The average of fluorescence values in duplicate wells for a given compound was used to determine the percent activity by taking the values obtained with DMSO controls as 100%. Compounds 1-11, 18-32, and 37-101 above were identified. […] Compounds 12-17 are compounds related to those identified in the HTS screen that also show significant WNV protease inhibition, i.e., >95%.

[1] = tested on: Dengue 2 replicon expressing BHK cells; assay: Replicon inhibition assay (Renilla luciferase), Dengue 2 replicon expressing BHK cells; format: cell-based, Dengue virus (DENV2); details: for EC50: Dengue virus; for DENV2 BHK replicon inhibition (FIG. 2): 25 μM final concentration, 24 hours, BHK cells
Method: (§1) Baby Hamster Kidney (BHK) and African green monkey kidney epithelial cells (Vero) were cultured in Dulbecco's Modified Eagle Medium (DMEM) (Cellgro®; Mediatech, Inc., Manassas, Va.) supplemented with 10% fetal bovine serum, MEM nonessential amino acid (Cellgro®) (5 ml/liter), and Penicillin-Streptomycin (2.5 ml/liter). Dengue 2 replicon expressing BHK cells and WNV replicon expressing Vero cells were cultured in DMEM as described above containing additionally Geneticin or G418 (Fisher Scientific®, Pittsburgh, Pa.) to maintain the selective pressure of the replicon expressing cells.
(§2) Dengue 2 replicon expressing BHK cells and WNV replicon expressing Vero cells were plated 100 μl into a black 96 well plate (Greiner Bio-One; Monroe, N.C.) with 10^5 cells/ml concentrations. After 6 hours of incubation, 1 μl of each compound diluted in DMSO to 2.5 mM was added into each well to obtain a 25 μM as the final concentration. Cells were incubated at 37° C. in a humidified CO2 (5%) chamber for 24 hours. The media was then removed and the cells are washed with PBS before adding 20 μl of lysis buffer to each well. A Renilla luciferase assay was performed with the addition of 50 μl substrate (Promega Corporation; Madison, Wis.) with a 2 second delay and a 10 second measurement in a Centro LB 960 plate luminescence plate reader (Berthold Technologies; Oak Ridge, Tenn.). The data was analyzed and plotted with GraphPad Prism 5 (GraphPad Software, Inc.; La Jolla, Calif.).
Renilla luciferase activity was measured as described above 24 hours after the addition of the compounds.

[2] = Cytotoxicity assay (MTT), naïve BHK cells; format: cell-based; details: hamster, 18 hours incubation
Method: as §1
(§3) Naïve Vero cells were cultured in the presence of varying concentrations of the Compound 33, Compound 34, and Compound 35 to calculate CC50 values. In the same way, Compound 33, Compound 34, Compound 35, and Compound 36 were tested in BHK cells. Naïve BHK and Vero cells were prepared in 96-well plates as described above at various final concentrations. After 18 hours of incubation, 10 μl of MTT reagent (Chemicon; Temecula, Calif.) is added into each well. The cells were incubated for 2 hours before adding 100 μl of detergent and were read in a spectrophotometer as described in the manufacturer's protocol.

[3] = tested on: WNV replicon expressing Vero cells; assay: Replicon inhibition assay (Renilla luciferase), WNV replicon expressing Vero cells; format: cell-based, West Nile virus (WNV); details: for WNV replicon inhibition (FIG. 1): 25 μM final concentration, 24 hours, Vero cells; for EC50: West Nile virus, Vero, 24 h
Method: as §1, §2
Specifically, the cells were prepared as above and the concentration of the compounds were varied (see Table 2). Renilla luciferase activity was measured as described above 24 hours after the addition of the compounds.

[4] = Cytotoxicity assay (MTT), naïve Vero cells; format: cell-based; details: African green monkey, 18 hours incubation
Method: as §1, §3

Structure (SMILES) | % Inhibition (reduction in protease activity) (WNV protease) [%] | also measured
Oc1ccccc1C(Nc1nc2ccccc2s1)c1ccc2cccnc2c1O (stereo not drawn) [Compound 16] | >95 | EC50 ([1]; DENV2, BHK): ~4.5 µM
Oc1c(C(Nc2nc3ccccc3s2)c2ccccc2)ccc2cccnc12 (stereo not drawn) [Compound 13] | >95 | EC50 ([1]; DENV2, BHK): ~7.5 µM
Oc1c(CN2CCOCC2)cc(Cl)c2c1NCCC2 [Compound 36] |  | DENV2 BHK replicon inhibition (FIG. 2) [1]: inhibitory; EC50 ([1]; BHK, 24 h): 63.1 µM; CC50 at 18 h [2]: 220 µM
Oc1c(C(Nc2nccs2)c2cccc(OCc3ccccc3)c2)ccc2cccnc12 (stereo not drawn) [Compound 17] | >95 | EC50 ([1]; DENV2, BHK): ~8.3 µM
O=C(CCCN1C(=O)/C(=C/C=C/c2ccccc2)SC1=S)Nc1ccccn1 [Compound 21] | 74 | 
Cc1cccc(N2C(=O)/C(=C/c3ccc(O)c(O)c3)SC2=S)c1C [Compound 29] | 58 | 
Oc1c(C(Nc2nccs2)c2ccc(F)cc2)ccc2cccnc12 (stereo not drawn) [Compound 9] | 74 | 
CCc1ccc(-c2cc(C(=O)Nc3ccc(S(=O)(=O)NC(C)=O)cc3)c3ccccc3n2)cc1 [Compound 87] | 54 | 
CCn1c2ccccc2c2nnc(SCC(=O)Nc3ccc(S(N)(=O)=O)cc3)nc21 [Compound 86] | 54 | 
Cn1c(=O)n(CCOc2ccc(Cl)cc2)c2ccccc21 [Compound 41] | 56 | 
O=C(/C=C/c1ccccc1)Nc1c2c(nn1-c1ccccc1)CSC2 [Compound 74] | 57 | 
COc1ccc(Cl)cc1NC(=O)c1cc(-c2ccco2)on1 [Compound 70] | 60 | 
Cc1cc(NC(=O)CSc2ccccn2)no1 [Compound 88] | 54 | 
CCOC(=O)c1ccc(NC(=O)Cn2ncc3c4ccccc4n(Cc4ccccc4)c3c2=O)cc1 [Compound 59] | 53 | 
COc1ccc(Cc2c(O)nc(SC)n(-c3ccccc3)c2=O)cc1 [Compound 55] | 51 | 
Cc1ccc(NC(=O)c2cc(-c3ccc(O)cc3)on2)cc1 [Compound 85] | 54 | 
CCN(CC)S(=O)(=O)c1ccc2oc(C(=O)Nc3cccc(OC)c3)c(C)c2c1 [Compound 64] | 65 | 
O=C(CSc1oc(-c2cccs2)nc1S(=O)(=O)c1ccccc1)NC1CCCCC1 [Compound 95] | 52 | 

Structure (SMILES) | % Inhibition (reduction in protease activity) (WNV protease) [%] | also measured
Oc1c(C(Nc2nccs2)c2ccccc2)ccc2cccnc12 (stereo not drawn) [Compound 14] | >95 | 
O=C(CC1Sc2ncnn2C1=O)Nc1ccc(Br)cc1 (stereo not drawn) [Compound 57] | 58 | 
O=C(NCc1csc2ccccc12)c1cc(F)cc2c1OCOC2 [Compound 89] | 53 | 
O=C1/C(=C/C2C=CC=[SH]2)SC(=S)N1CC(=O)N(Cc1ccccc1)c1ccccc1 (stereo not drawn) [Compound 26] | 67 | 
CCCCC1CCC(C(=O)Nc2c3c(nn2-c2ccccc2C)C[S+]([O-])C3)CC1 (stereo not drawn) [Compound 96] | 51 | 
Cc1cc(NC(c2cccc(Br)c2)c2ccc3cccnc3c2O)no1 (stereo not drawn) [Compound 10] | 70 | 
O=C(CCc1ccccc1)Nc1nnc(SCc2ccc(F)cc2)s1 [Compound 69] | 61 | 
Oc1c(CN2CCOCC2)ccc2cccnc12 [Compound 33] |  | WNV replicon inhibition (FIG. 1) [3]: inhibitory; EC50 [3]: 7.96 µM; DENV2 BHK replicon inhibition (FIG. 2) [1]: inhibitory; EC50 ([1]; BHK, 24 h): 10.6 µM
CC(C)N1C(=O)/C(=C2/C(=O)N(CC(=O)O)c3ccc(Br)cc32)SC1=S [Compound 31] | 53 | 
O=C(NC(c1ccccc1Cl)c1ccc2cccnc2c1O)c1ccccc1 (stereo not drawn) [Compound 2] | 85 | 
Oc1c(C(Nc2ccccn2)c2ccccc2)ccc2cccnc12 (stereo not drawn) [Compound 8] | 75 | 
CCN(CC)Cc1cc(Cl)c2cccnc2c1O [Compound 35] |  | WNV replicon inhibition (FIG. 1) [3]: inhibitory; EC50 [3]: 3.38 µM; DENV2 BHK replicon inhibition (FIG. 2) [1]: inhibitory; EC50 ([1]; BHK, 24 h): 2.35 µM; CC50 at 18 h [4]: 60.9 µM; CC50 at 18 h [2]: 70.1 µM
Oc1c(C(c2ccc(Cl)cc2)N2CCOCC2)cc(Cl)c2cccnc12 (stereo not drawn) [Compound 11] | 65 | 
O=C(c1cc(Br)cc2c1OCC2)N1CCOCC1 [Compound 75] | 57 | 
Cc1cccc(NC(c2ccccc2OCc2ccccc2)c2ccc3cccnc3c2O)n1 (stereo not drawn) [Compound 15] | >95 | 
CC(/C=C1\SC(=S)N(CCCC(=O)Nc2cccnc2)C1=O)=C\c1ccccc1 [Compound 23] | 72 | 
Oc1c(CN2CCOCC2)cc(Cl)c2cccnc12 [Compound 34] |  | WNV replicon inhibition (FIG. 1) [3]: inhibitory; EC50 [3]: 14.3 µM; DENV2 BHK replicon inhibition (FIG. 2) [1]: inhibitory; EC50 ([1]; BHK, 24 h): 35 µM; CC50 at 18 h [4]: 355 µM; CC50 at 18 h [2]: 170 µM
O=C(CCCN1C(=O)/C(=C/C=C/c2ccccc2)SC1=S)Nc1cccc(F)c1 [Compound 27] | 66 | 
